Laboratory results published in US9790215B2 (FLATLEY DISCOVERY LAB, LLC, priority 2013, dated 2017).

Molecular target: T1, human ΔF508-CFTR (Homo sapiens, UniProt P13569, DEL508-508)
T1 construct: expressed in transfected cells
Test: CFTR-YFP High Throughput Assay (YFP halide flux in FRT cells)
Format: cell-based
Details: FRT cells expressing human ΔF508-CFTR and YFP; forskolin stimulated
Method: Assays for Detecting and Measuring the Effect of Compounds on dF508-CFTR Channels CFRT-YFP High Throughput Assay:
The following protocol is designed to selectively screen small molecule compounds for F508del CFTR corrector activities in the HTS YFP flux assay. In this protocol, the cells are incubated with testing compounds for 24 hours, washed with PBS, stimulated with forskolin and a standard potentiator, and read on a 384-well HTS plate reader, such as the Hamamatsu FDDD-6000.
(§1) YFP fluorescence intensity is acquired at high speed before and after iodide buffer is injected to the assay cells. Iodide enters the cells via active CFTR channels in the plasma membrane, and quenches the YFP fluorescence. The rate of fluorescence quenching is proportionally related to the total CFTR activities in the cell membrane. dF508-CFTR corrector accelerates YFP quenching by increasing the number of CFTR molecules in the testing cell plasma membrane.
This method was initially developed for bench top plate readers (Galietta et al., 2001), and was adapted to the HTS format (Sui et al. Assay Drug Dev. Technol. 2010).
Fisher Rat Thyroid (FRT) cells stably expressing both human AF508-CFTR and a halide-sensitive yellow fluorescent protein (YFP—H148Q/1152L 25, 22) (Galietta et al., Am. J. Physiol Cell Physiol 281(5), C1734, 2001) were cultured on plastic surface in Coon's modified Ham's F12 medium supplemented with FBS 10%, L-glutamine 2 mM, penicillin 100 U/mL, and streptomycin 100 μg/mL. G418 (0.75-1.0 mg/mL) and zeocin (3.2 ug/mL) were used for selection of FRT cells expressing ΔF508-CFTR and YFP. For primary screening, FRT cells were plated into 384-well black wall, transparent bottom microtiter plates (Costar; Corning Inc.) at a cell density of 20,000-40,000 per well. Test compound was applied to the cells at varying concentrations ranging from […] in either a 2-fold or 3-fold dilution series. Cells were incubated in a cell culture incubator at 37° C. with 5% CO2 for 24-26 h. Assay plates were washed with DPBS media (Thermo, cat# SH30028.02) to remove unbound cells and compound. Stimulation media (25 μL) containing 20 μM Forskolin & 30 μM P3 [6-(Ethyl-phenyl-sulfonyl)-4-oxo-1,4-dihydro-quinoline-3-carboxylic acid 2-methoxy-benzylamide] in Hams F-12 coon's modified media was added to the plate wells and incubated at room temperature for 60-120 min. 25 μL of HEPES-PBS-I buffer (10 mM HEPES, 1 mM MgCl2, 3 mM KCl, 1 mM CaCl2, 150 mM NaI) was then added and fluorescence quench curves (Excitation 500 nm/Emission 540 nm; exposure 136 ms) were immediately recorded on an FDSS-6000 plate reader (Hamamatsu). Quench rates were derived from least squares fitting of the data as described by Sui et al., (2010).
The following protocol is designed to selectively screen small molecule compounds for F508del CFTR potentiator activities in the HTS YFP flux assay. In this protocol, the cells are incubated at 27 C for 24 hours with homogeneously boosted dF508-CFTR expression in the cell membrane by the low temperature, washed with PBS, stimulated with forskolin, and read on a 384-well HTS plate reader, such as the Hamamatsu FDDD-6000.
as §1, with “dF508del-CFTR potentiators accelerate” for “dF508-CFTR corrector accelerates”, “increasing” for “increasing the number of”, “activities” for “molecules”
Fisher Rat Thyroid (FRT) cells stably expressing both human ΔF508-CFTR and a halide-sensitive yellow fluorescent protein (YFP-H148Q/I152L 25, 22) (Galietta et al., Am. J. Physiol Cell Physiol 281(5), C1734, 2001) were cultured on plastic surface in Coon's modified Ham's F12 medium supplemented with FBS 10%, L-glutamine 2 mM, penicillin 100 U/mL, and streptomycin 100 μg/mL. […]

T1 sequence (P13569 with tags, fused parts or gaps DEL508-508): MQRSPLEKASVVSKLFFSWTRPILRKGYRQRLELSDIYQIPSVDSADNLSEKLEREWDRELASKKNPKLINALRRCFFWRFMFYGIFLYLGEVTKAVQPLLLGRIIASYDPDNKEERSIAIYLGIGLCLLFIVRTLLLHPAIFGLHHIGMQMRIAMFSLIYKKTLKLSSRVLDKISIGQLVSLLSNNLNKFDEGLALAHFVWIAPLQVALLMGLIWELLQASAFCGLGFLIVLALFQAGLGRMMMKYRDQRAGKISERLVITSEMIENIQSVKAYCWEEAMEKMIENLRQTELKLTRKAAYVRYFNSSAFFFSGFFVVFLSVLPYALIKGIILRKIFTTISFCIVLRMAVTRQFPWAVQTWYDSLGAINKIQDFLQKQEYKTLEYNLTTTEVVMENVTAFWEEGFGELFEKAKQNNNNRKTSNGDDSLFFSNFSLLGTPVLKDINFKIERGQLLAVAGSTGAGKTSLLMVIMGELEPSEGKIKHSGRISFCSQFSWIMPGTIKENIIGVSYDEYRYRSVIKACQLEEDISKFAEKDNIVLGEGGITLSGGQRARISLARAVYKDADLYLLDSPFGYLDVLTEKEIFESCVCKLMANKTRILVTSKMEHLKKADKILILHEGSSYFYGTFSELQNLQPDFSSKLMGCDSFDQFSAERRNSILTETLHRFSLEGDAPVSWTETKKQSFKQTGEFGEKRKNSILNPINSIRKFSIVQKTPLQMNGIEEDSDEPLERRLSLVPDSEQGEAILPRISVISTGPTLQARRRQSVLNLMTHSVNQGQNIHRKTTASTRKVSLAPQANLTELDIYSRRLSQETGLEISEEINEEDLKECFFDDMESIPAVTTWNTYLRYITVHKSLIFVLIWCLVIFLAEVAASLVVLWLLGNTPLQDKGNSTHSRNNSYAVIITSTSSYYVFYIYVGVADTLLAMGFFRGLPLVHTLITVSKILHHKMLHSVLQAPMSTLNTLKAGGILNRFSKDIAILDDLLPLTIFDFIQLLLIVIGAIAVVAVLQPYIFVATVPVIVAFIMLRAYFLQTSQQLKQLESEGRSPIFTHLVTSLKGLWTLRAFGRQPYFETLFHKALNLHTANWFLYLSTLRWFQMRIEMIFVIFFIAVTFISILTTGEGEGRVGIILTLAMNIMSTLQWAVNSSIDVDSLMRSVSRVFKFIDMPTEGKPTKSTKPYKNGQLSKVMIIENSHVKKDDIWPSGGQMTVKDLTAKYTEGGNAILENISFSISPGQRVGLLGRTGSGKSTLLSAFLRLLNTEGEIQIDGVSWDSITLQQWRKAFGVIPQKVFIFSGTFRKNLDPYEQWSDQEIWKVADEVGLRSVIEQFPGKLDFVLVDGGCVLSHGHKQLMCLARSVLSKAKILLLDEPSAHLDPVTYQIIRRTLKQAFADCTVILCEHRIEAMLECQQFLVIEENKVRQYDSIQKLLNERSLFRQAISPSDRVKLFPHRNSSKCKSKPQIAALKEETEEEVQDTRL

Structure (SMILES)	EC50
CCc1ccc(N(CC)C(=O)Cn2nc(Cc3cccnc3)c3cc(OC)ccc3c2=O)cc1 [Example 36, N-ethyl-N-(4-ethylphenyl)-2-(6-methoxy-1-oxo-4-(pyridin-3-ylmethyl)phthalazin-2(1H)-yl)acetamide]	< 10 µM
CCc1ccc(N(CC)C(=O)Cn2nc(Cc3cccnc3)c3cccc(F)c3c2=O)cc1 [Example 37, N-ethyl-N-(4-ethylphenyl)-2-(8-fluoro-1-oxo-4-(pyridin-3-ylmethyl)phthalazin-2(1H)-yl)acetamide]	< 10 µM
CCc1ccc(N(CC)C(=O)Cn2nc(Cc3cccnc3)c3cc(Cl)c(Cl)cc3c2=O)cc1 [Example 38, 2-(6,7-dichloro-1-oxo-4-(pyridin-3-ylmethyl)phthalazin-2(1H)-yl)-N-ethyl-N-(4-ethylphenyl)acetamide]	> 20 µM
CCc1ccc(N(CC)C(=O)Cn2nc(Cc3cccnc3)c3ccc(Cl)cc3c2=O)cc1 [Example 39, 2-(7-chloro-1-oxo-4-(pyridin-3-ylmethyl)phthalazin-2(1H)-yl)-N-ethyl-N-(4-ethylphenyl)acetamide]	< 10 µM
CCc1ccc(N(CC)C(=O)Cn2nc(Cc3cccnc3)c3cc(Cl)ccc3c2=O)cc1 [Example 40, 2-(6-chloro-1-oxo-4-(pyridin-3-ylmethyl)phthalazin-2(1H)-yl)-N-ethyl-N-(4-ethylphenyl)acetamide]	< 10 µM
CCc1ccc(N(CC)C(=O)Cn2nc(Cc3cccnc3)c3ccncc3c2=O)cc1 [Example 41, N-ethyl-N-(4-ethylphenyl)-2-(4-oxo-1-(pyridin-3-ylmethyl)pyrido[3,4-d]pyridazin-3(4H)-yl)acetamide]	> 20 µM
CCc1ccc(N(CC)C(=O)Cn2nc(Cc3cccnc3)c3cnccc3c2=O)cc1 [Example 42, N-ethyl-N-(4-ethylphenyl)-2-(1-oxo-4-(pyridin-3-ylmethyl)pyrido[3,4-d]pyridazin-2(1H)-yl)acetamide]	> 20 µM
CCc1ccc(N(CC)C(=O)Cn2nc(Cc3cccnc3)c3ncccc3c2=O)cc1 [Example 43, N-ethyl-N-(4-ethylphenyl)-2-(5-oxo-8-(pyridin-3-ylmethyl)pyrido[2,3-d]pyridazin-6(5H)-yl)acetamide]	10 to 20 µM
CCN(C(=O)Cn1nc(Cc2cccnc2)c2cc(OC)c(OC)cc2c1=O)c1ccc2c(c1)OC(F)(F)O2 [Example 44]	< 10 µM
CCN(C(=O)Cn1nc(Cc2cccnc2)c2ccc(C)cc2c1=O)c1ccc2c(c1)OC(F)(F)O2 [Example 45, N-(2,2-difluorobenzo[d][1,3]dioxol-5-yl)-N-ethyl-2-(7-methyl-1-oxo-4-(pyridin-3-ylmethyl)phthalazin-2(1H)-yl)acetamide]	< 10 µM
CCN(C(=O)Cn1nc(Cc2cccnc2)c2cc(C)ccc2c1=O)c1ccc2c(c1)OC(F)(F)O2 [Example 46, N-(2,2-difluorobenzo[d][1,3]dioxol-5-yl)-N-ethyl-2-(6-methyl-1-oxo-4-(pyridin-3-ylmethyl)phthalazin-2(1H)-yl)acetamide]	< 10 µM
CCN(C(=O)Cn1nc(Cc2cccnc2)c2cccc(C)c2c1=O)c1ccc2c(c1)OC(F)(F)O2 [Example 47, N-(2,2-difluorobenzo[d][1,3]dioxol-5-yl)-N-ethyl-2-(8-methyl-1-oxo-4-(pyridin-3-ylmethyl)phthalazin-2(1H)-yl)acetamide]	< 10 µM
CCN(C(=O)Cn1nc(Cc2cccnc2)c2c(C)cccc2c1=O)c1ccc2c(c1)OC(F)(F)O2 [Example 48, N-(2,2-difluorobenzo[d][1,3]dioxol-5-yl)-N-ethyl-2-(5-methyl-1-oxo-4-(pyridin-3-ylmethyl)phthalazin-2(1H)-yl)acetamide]	< 10 µM
CCN(C(=O)Cn1nc(Cc2cccnc2)c2cc(C(C)(C)C)ccc2c1=O)c1ccc2c(c1)OC(F)(F)O2 [Example 49, 2-(6-(tert-butyl)-1-oxo-4-(pyridin-3-ylmethyl)phthalazin-2(1H)-yl)-N-(2,2-difluorobenzo[d][1,3]dioxol-5-yl)-N-ethylacetamide]	< 10 µM
CCN(C(=O)Cn1nc(Cc2cccnc2)c2ccc(C(C)(C)C)cc2c1=O)c1ccc2c(c1)OC(F)(F)O2 [Example 50, 2-(7-(tert-butyl)-1-oxo-4-(pyridin-3-ylmethyl)phthalazin-2(1H)-yl)-N-(2,2-difluorobenzo[d][1,3]dioxol-5-yl)-N-ethylacetamide]	< 10 µM
CCN(C(=O)Cn1nc(Cc2cccnc2)c2cc(OC)ccc2c1=O)c1ccc2c(c1)OC(F)(F)O2 [Example 51, N-(2,2-difluorobenzo[d][1,3]dioxol-5-yl)-N-ethyl-2-(6-methoxy-1-oxo-4-(pyridin-3-ylmethyl)phthalazin-2(1H)-yl)acetamide]	< 10 µM
CCN(C(=O)Cn1nc(Cc2cccnc2)c2ccc(OC)cc2c1=O)c1ccc2c(c1)OC(F)(F)O2 [Example 52, N-(2,2-difluorobenzo[d][1,3]dioxol-5-yl)-N-ethyl-2-(7-methoxy-1-oxo-4-(pyridin-3-ylmethyl)phthalazin-2(1H)-yl)acetamide]	< 10 µM
CCN(C(=O)Cn1nc(Cc2cccnc2)c2cc(Cl)ccc2c1=O)c1ccc2c(c1)OC(F)(F)O2 [Example 53, 2-(6-chloro-1-oxo-4-(pyridin-3-ylmethyl)phthalazin-2(1H)-yl)-N-(2,2-difluorobenzo[d][1,3]dioxol-5-yl)-N-ethylacetamide]	< 10 µM
CCN(C(=O)Cn1nc(Cc2cccnc2)c2ccc(Cl)cc2c1=O)c1ccc2c(c1)OC(F)(F)O2 [Example 54, 2-(7-chloro-1-oxo-4-(pyridin-3-ylmethyl)phthalazin-2(1H)-yl)-N-(2,2-difluorobenzo[d][1,3]dioxol-5-yl)-N-ethylacetamide]	< 10 µM
CCN(C(=O)Cn1nc(Cc2cccnc2)c2cccc(OC)c2c1=O)c1ccc2c(c1)OC(F)(F)O2 [Example 55, N-(2,2-difluorobenzo[d][1,3]dioxol-5-yl)-N-ethyl-2-(8-methoxy-1-oxo-4-(pyridin-3-ylmethyl)phthalazin-2(1H)-yl)acetamide]	< 10 µM
CCN(C(=O)Cn1nc(Cc2cccnc2)c2c(OC)cccc2c1=O)c1ccc2c(c1)OC(F)(F)O2 [Example 56, N-(2,2-difluorobenzo[d][1,3]dioxol-5-yl)-N-ethyl-2-(5-methoxy-1-oxo-4-(pyridin-3-ylmethyl)phthalazin-2(1H)-yl)acetamide]	< 10 µM
CCOc1cccc2c(Cc3cccnc3)nn(CC(=O)N(CC)c3ccc4c(c3)OC(F)(F)O4)c(=O)c12 [Example 57, N-(2,2-difluorobenzo[d][1,3]dioxol-5-yl)-N-ethyl-2-(8-ethoxy-1-oxo-4-(pyridin-3-ylmethyl)phthalazin-2(1H)-yl)acetamide]	< 10 µM
CCOc1cccc2c(=O)n(CC(=O)N(CC)c3ccc4c(c3)OC(F)(F)O4)nc(Cc3cccnc3)c12 [Example 58, N-(2,2-difluorobenzo[d][1,3]dioxol-5-yl)-N-ethyl-2-(5-ethoxy-1-oxo-4-(pyridin-3-ylmethyl)phthalazin-2(1H)-yl)acetamide]	10 to 20 µM
CCN(C(=O)Cn1nc(Cc2cccnc2)c2cccc(OC3CCCCC3)c2c1=O)c1ccc2c(c1)OC(F)(F)O2 [Example 59, 2-(8-(cyclohexyloxy)-1-oxo-4-(pyridin-3-ylmethyl)phthalazin-2(1H)-yl)-N-(2,2-difluorobenzo[d][1,3]dioxol-5-yl)-N-ethylacetamide]	< 10 µM
